Source: US9822086B2, “Process for the preparation of vortioxetine salts” (Egis Gyogyszergyar Zrt., priority 2014, dated 2017)
Blank lines part the entries; values can stand above or below the compound they belong to.

Test: Particle size distribution (Malvern Mastersizer 3000) of starting and vortex-mill ground salts
Type: physicochemical
Description: The vortioxetine salts according to the present invention can be ground preferably in a vortex mill, if necessary. Such active ingredients ground in a vortex mill are used in the pharmaceutical compositions according to examples 20-23.
The distribution of the particle size is measured on a Malvern Mastersizer 3000 apparatus under the following conditions: […]

[1] = dispersing pressure 2.0 bar, hemicitrate salt
[2] = dispersing pressure 2.0 bar, monooxalate salt

Compound: 1-[2-(2,4-dimethyl-phenylsulfanyl)-phenyl]-piperazine L-(+)-mandelic acid salt [Vortioxetine-L-mandalate]
- Characteristic particle size d10 (dispersing pressure 2.0 bar): 8.6 (±0.2%) μm
- Characteristic particle size d50 (dispersing pressure 2.0 bar): 41.5 (±0.2%) μm
- Characteristic particle size d90 (dispersing pressure 2.0 bar): 114 (±0.9%) μm

Compound: 1-[2-(2,4-dimethyl-phenylsulfanyl)-phenyl]-piperazine hemicitrate salt [Vortioxetine-hemicitrate ground]
- Characteristic particle size d10 [1]: 0.6 (±0.7%) μm
- Characteristic particle size d50 [1]: 2.9 (±0.2%) μm
- Characteristic particle size d90 [1]: 9.1 (±1.1%) μm

Compound: 1-[2-(2,4-dimethyl-phenylsulfanyl)-phenyl]-piperazine L-(+)-mandelic acid salt [Vortioxetine-L-mandalate ground]
- Characteristic particle size d10 (dispersing pressure 2.0 bar): 0.5 (±0.6%) μm
- Characteristic particle size d50 (dispersing pressure 2.0 bar): 2.1 (±0.2%) μm
- Characteristic particle size d90 (dispersing pressure 2.0 bar): 5.0 (±0.9%) μm

Compound: 1-[2-(2,4-dimethyl-phenylsulfanyl)-phenyl]-piperazine hemicitrate salt [Vortioxetine-hemicitrate]
- Characteristic particle size d10 [1]: 5.3 (±0.4%) μm
- Characteristic particle size d50 [1]: 25.9 (±0.7%) μm
- Characteristic particle size d90 [1]: 83.6 (±0.4%) μm

Compound: Cc1ccc(Sc2ccccc2N2CCNCC2)c(C)c1.O=C(O)C(=O)O [Vortioxetine-monooxalate, 1-[2-(2,4-dimethyl-phenylsulfanyl)-phenyl]-piperazine monooxalate salt]
- Characteristic particle size d10 [2]: 2.0 (±0.3%) μm
- Characteristic particle size d50 [2]: 6.8 (±0.5%) μm
- Characteristic particle size d90 [2]: 21.14 (±0.7%) μm

Further lines, results first:

- Characteristic particle size d10 (dispersing pressure 4.0 bar): 1.4 (±2.2%) μm
- Characteristic particle size d50 (dispersing pressure 4.0 bar): 10.8 (±1.6%) μm
- Characteristic particle size d90 (dispersing pressure 4.0 bar): 98.6 (±4.3%) μm
Compound: Br.Cc1ccc(Sc2ccccc2N2CCNCC2)c(C)c1 [Vortioxetine-hydrobromide, 1-[2-(2,4-dimethyl-phenylsulfanyl)-phenyl]-piperazine hydrobromide salt, reference compound]

- Characteristic particle size d10 (dispersing pressure 2.0 bar): 0.4 (±0.5%) μm
- Characteristic particle size d50 (dispersing pressure 2.0 bar): 2.1 (±0.7%) μm
- Characteristic particle size d90 (dispersing pressure 2.0 bar): 6.2 (±1.0%) μm
Compound: Br.Cc1ccc(Sc2ccccc2N2CCNCC2)c(C)c1 [Vortioxetine-hydrobromide ground, 1-[2-(2,4-dimethyl-phenylsulfanyl)-phenyl]-piperazine hydrobromide salt, reference compound]

- Characteristic particle size d10 [2]: 0.7 (±0.5%) μm
- Characteristic particle size d50 [2]: 2.2 (±0.7%) μm
- Characteristic particle size d90 [2]: 5.9 (±0.9%) μm
Compound: Cc1ccc(Sc2ccccc2N2CCNCC2)c(C)c1.O=C(O)C(=O)O [Vortioxetine-monooxalate ground, 1-[2-(2,4-dimethyl-phenylsulfanyl)-phenyl]-piperazine monooxalate salt]
